From patent US20210022305A1, “A HUMULUS PLANT VARIANT AND EXTRACTS THEREOF” (BOMI LLC, priority 2018, published 2021)

System: liver cancer tumors (Standard Risk Hepatoblastoma)
Experiment: Liver cancer study: cisplatin alone vs cisplatin + ImmunAG, tumor size
Type: in vivo, human
Source text: Patient Characteristics. There were 99 men and 18 women in the trial. The average age was 53, with a minimum age of 31 and a maximum age of 78. Eighty-six patients (73.5%) were preoperative TACE negative, and 31 patients (26.49%) were preoperative TACE positive. Seventeen patient (14.52%) were HBsAg negative and 100 patients (85.47%) were HBsAg positive. One hundred six patients […] were Anti-HCV negative and 11 patients […] were Anti-HCV positive. Eighteen patients […] were negative for cirrhosis and 99 patients (83.9%) were positive for cirrhosis. Preoperative alpha-fetoprotein (μg/L) was an average of 18.3 with a minimum value of 1.7 and a maximum value of 1089. Cumulative tumor size was an average of 4.89 cm with a minimum of 2.37 cm and a maximum value of 19.62 cm. Fifty-three people had 2 tumors in the liver, 52 people has 3 liver tumors and 12 people had 4 tumors. The average tumor number is […]. There were 7 cases (5.98%) of high Necrosis differentiation, 106 cases of medium (90.59%) Necrosis differentiation, and 4 cases (3.41%) of low Necrosis differentiation. […] The rest, 99 patient (84.6%) had liver capsule invasion in some form.
All these patients were suffering from Standard Risk (SR) Hepatoblastoma- and not Hepatocellular carcinoma or Cholangiocarcinoma. Of these patients, 57 of the men, and 7 of the women, had surgical resectioning of some degree. However at this point of treatment resectioning was not considered a viable option.
There were 54 men and 10 women in the Cisplatin alone treatment group. There were 45 men and 8 women in the Cisplatin+ImmunAG group. The Cisplatin alone treatment group received a dosage of 50-70 mg/m^2, every four weeks for a duration of the study. The Cisplatin+ImmunAG group received the same dosage of Cisplatin as noted above in combination with a 80 mg-600 mg/day dose of ImmunAG (composition comprising CBD, humulene, and β-caryophyllene). The exact dose of ImmunAG was determined based on patient's sex and height, and was administered in three doses over the course of the day.

**Q.** Which results are given for `N.N.[Cl][Pt][Cl]` [Cisplatin]?
**A.** Final tumor sizes, Mean (after treatment, cisplatin 50-70 mg/m^2 every four weeks, ImmunAG 80 mg-600 mg/day): 5.659; Initial tumor sizes, Mean (before treatment, liver tumors of patients): 4.851; Change of mean tumors (final vs initial): 17%; Mean tumors relative to initial (from 1) (final vs initial = 1): 1.17
